{"source": "ChEMBL document CHEMBL3785045", "about": "“Design, syntheses, and anti-tuberculosis activities of conjugates of piperazino-1,3-benzothiazin-4-ones (pBTZs) with 2,7-dimethylimidazo [1,2-a]pyridine-3-carboxylic acids and 7-phenylacetyl cephalosporins” (2016)", "key": {"[1]": {"system": "Mycobacterium tuberculosis", "assay": "Antimycobacterial activity against Mycobacterium tuberculosis H37Rv cultured in 7H12 medium after 4 days by microplate Alamar blue assay", "format": "functional", "conditions": "96 h"}, "[2]": {"system": "Mycobacterium tuberculosis", "assay": "Antimycobacterial activity against Mycobacterium tuberculosis H37Rv cultured in GAS medium after 4 days by microplate Alamar blue assay", "format": "functional", "conditions": "96 h"}, "Bacillus subtilis [3]": {"system": "Bacillus subtilis", "assay": "Antibacterial activity against Bacillus subtilis ATCC 6633", "format": "functional"}, "Staphylococcus aureus [4]": {"system": "Staphylococcus aureus", "assay": "Antibacterial activity against Staphylococcus aureus SG511", "format": "functional"}, "Micrococcus luteus [5]": {"system": "Micrococcus luteus", "assay": "Antibacterial activity against Micrococcus luteus ATCC 10240", "format": "functional"}, "Staphylococcus aureus [6]": {"system": "Staphylococcus aureus", "assay": "Antibacterial activity against Staphylococcus aureus SG511 assessed as zone of growth inhibition by agar diffusion assay", "format": "functional"}, "Micrococcus luteus [7]": {"system": "Micrococcus luteus", "assay": "Antibacterial activity against Micrococcus luteus ATCC 10240 assessed as zone of growth inhibition by agar diffusion assay", "format": "functional"}, "Mycolicibacterium vaccae [8]": {"system": "Mycolicibacterium vaccae", "assay": "Antibacterial activity against Mycobacterium vaccae IMET 10670 assessed as zone of growth inhibition by agar diffusion assay", "format": "functional"}, "Mycolicibacterium vaccae [9]": {"system": "Mycolicibacterium vaccae", "assay": "Antibacterial activity against Mycobacterium vaccae IMET 10670", "format": "functional"}, "Bacillus subtilis [10]": {"system": "Bacillus subtilis", "assay": "Antibacterial activity against Bacillus subtilis ATCC 6633 assessed as zone of growth inhibition by agar diffusion assay", "format": "functional"}, "Micrococcus luteus [11]": {"system": "Micrococcus luteus", "assay": "Antibacterial activity against Micrococcus luteus ATCC 10240 assessed as zone of growth inhibition at 1.66 ug/ml by agar diffusion assay", "format": "functional", "conditions": "read-out: IZ"}, "Mycolicibacterium vaccae [12]": {"system": "Mycolicibacterium vaccae", "assay": "Antibacterial activity against Mycobacterium vaccae IMET 10670 assessed as zone of growth inhibition at 1.66 ug/ml by agar diffusion assay", "format": "functional", "conditions": "read-out: IZ"}, "Bacillus subtilis [13]": {"system": "Bacillus subtilis", "assay": "microbe, parasite or virus in culture", "conditions": "ATCC 6633, read-out: IZ", "description": "Antibacterial activity against Bacillus subtilis ATCC 6633 assessed as zone of growth inhibition at 1.66 ug/ml by agar diffusion assay"}, "Staphylococcus aureus [14]": {"system": "Staphylococcus aureus", "assay": "microbe, parasite or virus in culture", "conditions": "SG511, read-out: IZ", "description": "Antibacterial activity against Staphylococcus aureus SG511 assessed as zone of growth inhibition at 1.66 ug/ml by agar diffusion assay"}}, "data": [{"smiles": "CC(C)(C)OC(=O)N1CCN(c2nc(=O)c3cc(C(F)(F)F)cc([N+](=O)[O-])c3s2)CC1", "values": [{"measurement": "MIC", "setting": "[1]", "result": 0.28, "unit": "µM"}, {"measurement": "MIC", "setting": "[2]", "result": "< 0.2", "unit": "µM"}]}, {"smiles": "O=C(Cc1ccccc1)N[C@@H]1C(=O)N2C(C(=O)O)=C(CN3CCN(c4cc5c(cc4F)c(=O)c(C(=O)O)cn5C4CC4)CC3)CS[C@H]12", "values": [{"measurement": "MIC", "setting": "Bacillus subtilis [3]", "result": "< 0.1", "unit": "µM"}, {"measurement": "MIC", "setting": "Staphylococcus aureus [4]", "result": 0.2, "unit": "µM"}, {"measurement": "MIC", "setting": "Micrococcus luteus [5]", "result": 3.13, "unit": "µM"}]}, {"smiles": "Cc1ccn2c(C(=O)NCCCC(=O)OCc3ccccc3)c(C)nc2c1", "values": [{"measurement": "MIC", "setting": "[1]", "result": 5.85, "unit": "µM"}, {"measurement": "MIC", "setting": "[2]", "result": "> 10", "unit": "µM"}]}, {"smiles": "CC(C)(C)OC(=O)C1=C(COC(=O)OC(Cl)C(Cl)(Cl)Cl)CS[C@@H]2[C@H](NC(=O)Cc3ccccc3)C(=O)N12", "note": "(stereo partly specified)", "values": [{"measurement": "MIC", "setting": "[1]", "result": "> 50", "unit": "µM"}, {"measurement": "MIC", "setting": "[2]", "result": 22.2, "unit": "µM"}]}, {"smiles": "Cc1ccn2c(C(=O)N3CCN(c4nc(=O)c5cc(C(F)(F)F)cc([N+](=O)[O-])c5s4)CC3)c(C)nc2c1", "values": [{"measurement": "MIC", "setting": "[1]", "result": 2.1, "unit": "µM"}, {"measurement": "MIC", "setting": "[2]", "result": 1.43, "unit": "µM"}]}, {"smiles": "Cc1ccn2c(C(=O)NCCC(=O)OCc3ccccc3)c(C)nc2c1", "values": [{"measurement": "MIC", "setting": "[1]", "result": "> 10", "unit": "µM"}, {"measurement": "MIC", "setting": "[2]", "result": "> 10", "unit": "µM"}]}, {"smiles": "O=C(Cc1ccccc1)N[C@@H]1C(=O)N2C(C(=O)O)=C(COC(=O)N3CCN(c4nc(=O)c5cc(C(F)(F)F)cc([N+](=O)[O-])c5s4)CC3)CS[C@H]12", "values": [{"measurement": "inhibition zone (IZ)", "setting": "Staphylococcus aureus [6]", "result": 27, "unit": "mm"}, {"measurement": "inhibition zone (IZ)", "setting": "Micrococcus luteus [7]", "result": 24, "unit": "mm"}, {"measurement": "inhibition zone (IZ)", "setting": "Mycolicibacterium vaccae [8]", "result": 48, "unit": "mm"}, {"measurement": "MIC", "setting": "[1]", "result": 4.63, "unit": "µM"}, {"measurement": "MIC", "setting": "[2]", "result": 12, "unit": "µM"}, {"measurement": "MIC", "setting": "Bacillus subtilis [3]", "result": 0.8, "unit": "µM"}, {"measurement": "MIC", "setting": "Staphylococcus aureus [4]", "result": 12.5, "unit": "µM"}, {"measurement": "MIC", "setting": "Mycolicibacterium vaccae [9]", "result": 0.2, "unit": "µM"}, {"measurement": "inhibition zone (IZ)", "setting": "Bacillus subtilis [10]", "result": 41, "unit": "mm"}]}, {"smiles": "O=C(Cc1ccccc1)N[C@@H]1C(=O)N2C(C(=O)O)=C(CN3CCN(c4nc(=O)c5cc(C(F)(F)F)cc([N+](=O)[O-])c5s4)CC3)CS[C@H]12", "values": [{"measurement": "inhibition zone (IZ)", "setting": "Staphylococcus aureus [6]", "result": 32, "unit": "mm"}, {"measurement": "inhibition zone (IZ)", "setting": "Micrococcus luteus [7]", "result": 48, "unit": "mm"}, {"measurement": "inhibition zone (IZ)", "setting": "Mycolicibacterium vaccae [8]", "result": 33, "unit": "mm"}, {"measurement": "MIC", "setting": "[1]", "result": 86.8, "unit": "µM"}, {"measurement": "MIC", "setting": "[2]", "result": 48.9, "unit": "µM"}, {"measurement": "MIC", "setting": "Bacillus subtilis [3]", "result": "< 0.003", "unit": "µM"}, {"measurement": "MIC", "setting": "Staphylococcus aureus [4]", "result": 0.4, "unit": "µM"}, {"measurement": "MIC", "setting": "Micrococcus luteus [5]", "result": 1.56, "unit": "µM"}, {"measurement": "MIC", "setting": "Mycolicibacterium vaccae [9]", "result": 12.5, "unit": "µM"}, {"measurement": "inhibition zone (IZ)", "setting": "Bacillus subtilis [10]", "result": 41, "unit": "mm"}]}, {"smiles": "COc1ccc(COC(=O)C2=C(CN3CCN(c4nc(=O)c5cc(C(F)(F)F)cc([N+](=O)[O-])c5s4)CC3)CS[C@@H]3[C@H](NC(=O)Cc4ccccc4)C(=O)N23)cc1", "values": [{"measurement": "inhibition zone (IZ)", "setting": "Staphylococcus aureus [6]", "result": 37, "unit": "mm"}, {"measurement": "inhibition zone (IZ)", "setting": "Micrococcus luteus [7]", "result": 24, "unit": "mm"}, {"measurement": "inhibition zone (IZ)", "setting": "Mycolicibacterium vaccae [8]", "result": 24, "unit": "mm"}, {"measurement": "MIC", "setting": "[1]", "result": "> 100", "unit": "µM"}, {"measurement": "MIC", "setting": "[2]", "result": "> 100", "unit": "µM"}, {"measurement": "MIC", "setting": "Bacillus subtilis [3]", "result": 0.1, "unit": "µM"}, {"measurement": "MIC", "setting": "Staphylococcus aureus [4]", "result": 1.56, "unit": "µM"}, {"measurement": "inhibition zone (IZ)", "setting": "Bacillus subtilis [10]", "result": 36, "unit": "mm"}]}, {"smiles": "Cc1ccn2c(C(=O)NCCCC(=O)N3CCN(c4nc(=O)c5cc(C(F)(F)F)cc([N+](=O)[O-])c5s4)CC3)c(C)nc2c1", "values": [{"measurement": "MIC", "setting": "[1]", "result": "> 10", "unit": "µM"}, {"measurement": "MIC", "setting": "[2]", "result": "> 10", "unit": "µM"}]}, {"smiles": "Cc1ccn2c(C(=O)NCCC(=O)N3CCN(c4nc(=O)c5cc(C(F)(F)F)cc([N+](=O)[O-])c5s4)CC3)c(C)nc2c1", "values": [{"measurement": "MIC", "setting": "[1]", "result": "> 10", "unit": "µM"}, {"measurement": "MIC", "setting": "[2]", "result": "> 10", "unit": "µM"}]}, {"smiles": "CC(C)(C)OC(=O)C1=C(COC(=O)N2CCN(c3nc(=O)c4cc(C(F)(F)F)cc([N+](=O)[O-])c4s3)CC2)CS[C@@H]2[C@H](NC(=O)Cc3ccccc3)C(=O)N12", "values": [{"measurement": "MIC", "setting": "[1]", "result": 1.49, "unit": "µM"}, {"measurement": "MIC", "setting": "[2]", "result": 63.5, "unit": "µM"}]}, {"smiles": "Cc1ccn2c(C(=O)NCc3ccc(C(=O)OCc4ccccc4)cc3)c(C)nc2c1", "values": [{"measurement": "MIC", "setting": "[1]", "result": 0.21, "unit": "µM"}, {"measurement": "MIC", "setting": "[2]", "result": 4.1, "unit": "µM"}]}, {"smiles": "Cc1ccn2c(C(=O)NCc3ccc(C(=O)N4CCN(c5nc(=O)c6cc(C(F)(F)F)cc([N+](=O)[O-])c6s5)CC4)cc3)c(C)nc2c1", "values": [{"measurement": "MIC", "setting": "[1]", "result": "> 10", "unit": "µM"}, {"measurement": "MIC", "setting": "[2]", "result": "> 10", "unit": "µM"}]}, {"smiles": "CC(C)(C)OC(=O)C1=C(CN2CCN(c3nc(=O)c4cc(C(F)(F)F)cc([N+](=O)[O-])c4s3)CC2)CS[C@@H]2[C@H](NC(=O)Cc3ccccc3)C(=O)N12", "values": [{"measurement": "inhibition zone (IZ)", "setting": "Staphylococcus aureus [6]", "result": 23, "unit": "mm"}, {"measurement": "inhibition zone (IZ)", "setting": "Micrococcus luteus [7]", "result": 13, "unit": "mm"}, {"measurement": "inhibition zone (IZ)", "setting": "Mycolicibacterium vaccae [8]", "result": 29, "unit": "mm"}, {"measurement": "MIC", "setting": "[1]", "result": 2.03, "unit": "µM"}, {"measurement": "MIC", "setting": "[2]", "result": 1.51, "unit": "µM"}, {"measurement": "MIC", "setting": "Bacillus subtilis [3]", "result": 1.56, "unit": "µM"}, {"measurement": "MIC", "setting": "Staphylococcus aureus [4]", "result": 12.5, "unit": "µM"}, {"measurement": "MIC", "setting": "Mycolicibacterium vaccae [9]", "result": 0.8, "unit": "µM"}, {"measurement": "inhibition zone (IZ)", "setting": "Bacillus subtilis [10]", "result": 27, "unit": "mm"}]}, {"smiles": "C[C@H]1COC2(CCN(c3nc(=O)c4cc(C(F)(F)F)cc([N+](=O)[O-])c4s3)CC2)O1", "note": "[BTZ-043]", "values": [{"measurement": "MIC", "setting": "[1]", "result": "< 0.004", "unit": "µM"}, {"measurement": "MIC", "setting": "[2]", "result": "< 0.004", "unit": "µM"}, {"measurement": "MIC", "setting": "Staphylococcus aureus [4]", "result": "> 200", "unit": "µM"}, {"measurement": "MIC", "setting": "Micrococcus luteus [5]", "result": "> 200", "unit": "µM"}, {"measurement": "MIC", "setting": "Mycolicibacterium vaccae [9]", "result": 0.03, "unit": "µM"}]}, {"smiles": "O=C(O)c1cn(C2CC2)c2cc(N3CCNCC3)c(F)cc2c1=O", "note": "[CIPROFLOXACIN]", "values": [{"measurement": "zone of inhibition at 1.66 µg/mL", "setting": "Micrococcus luteus [11]", "result": 0, "unit": "mm"}, {"measurement": "zone of inhibition at 1.66 µg/mL", "setting": "Mycolicibacterium vaccae [12]", "result": 17, "unit": "mm"}, {"measurement": "MIC", "setting": "Bacillus subtilis [3]", "result": 0.15, "unit": "µM"}, {"measurement": "zone of inhibition at 1.66 µg/mL", "setting": "Bacillus subtilis [13]", "result": 20, "unit": "mm"}, {"measurement": "zone of inhibition at 1.66 µg/mL", "setting": "Staphylococcus aureus [14]", "result": 20, "unit": "mm"}]}, {"smiles": "CO[C@H]1/C=C/O[C@@]2(C)Oc3c(C)c(O)c4c(O)c(c(/C=N/N5CCN(C)CC5)c(O)c4c3C2=O)NC(=O)/C(C)=C\\C=C\\[C@H](C)[C@H](O)[C@@H](C)[C@@H](O)[C@@H](C)[C@H](OC(C)=O)[C@@H]1C", "note": "[RIFAMPIN]", "values": [{"measurement": "MIC", "setting": "[1]", "result": 0.05, "unit": "µM"}, {"measurement": "MIC", "setting": "[2]", "result": 0.04, "unit": "µM"}]}]}
